Test results as given in ChEMBL document CHEMBL4610102, “Betulinic Acid Inhibits RANKL-Induced Osteoclastogenesis via Attenuating Akt, NF-κB, and PLCγ2-Ca2+ Signaling and Prevents Inflammatory Bone Loss” (J Nat Prod, 2020).
Activity calls are given as the source filed them. The rule behind the calls is not given here.

Assays:
BMDM [1] = assay: Anti-osteoporosis activity in ICR mouse bone marrow macrophages assessed as inhibition of RANKL-induced NFATc1 protein expression at 0.1 to 1 uM after 24 hrs by Western blot analysis; assay type: functional, cell-based
BMDM [2] = assay: Anti-osteoporosis activity in ICR mouse bone marrow macrophages assessed as inhibition of RANKL-induced c-Fos protein expression at 0.1 to 1 uM after 24 hrs by Western blot analysis; assay type: functional, cell-based
BMDM [3] = assay: Inhibition of RANKL-induced osteoclastogenesis in ICR mouse bone marrow macrophages assessed as reduction in TRAP-positive multinucleated osteoclasts at 0.1 to 1 uM after 3 days by TRAP staining based assay; assay type: functional, cell-based
[4] = target: RAC-alpha serine/threonine-protein kinase (Mus musculus) (UniProt P31750); assay: Inhibition of AKT phosphorylation in RANKL-induced ICR mouse bone marrow macrophages at 1 uM preincubated for 1 hr followed by RANKL-stimulation and measured after 5 to 30 mins by Western blot analysis
Chain of RAC-alpha serine/threonine-protein kinase (Mus musculus) (P31750 whole entry): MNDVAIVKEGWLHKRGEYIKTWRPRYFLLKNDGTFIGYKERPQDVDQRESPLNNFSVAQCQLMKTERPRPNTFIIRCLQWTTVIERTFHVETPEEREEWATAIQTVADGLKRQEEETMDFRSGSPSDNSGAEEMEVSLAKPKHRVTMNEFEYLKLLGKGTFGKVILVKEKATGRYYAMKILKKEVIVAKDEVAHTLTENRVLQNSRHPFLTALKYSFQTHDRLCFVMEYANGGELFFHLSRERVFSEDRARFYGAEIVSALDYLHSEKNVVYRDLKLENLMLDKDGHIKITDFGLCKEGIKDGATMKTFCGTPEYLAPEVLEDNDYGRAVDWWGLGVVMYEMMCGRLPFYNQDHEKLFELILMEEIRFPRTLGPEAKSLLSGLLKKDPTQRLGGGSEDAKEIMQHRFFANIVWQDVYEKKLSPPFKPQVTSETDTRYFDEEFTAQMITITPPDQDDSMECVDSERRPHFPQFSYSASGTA

Mus musculus [5] = assay: Anti-resorptive activity in ICR mouse model of LPS-Induced bone loss assessed as reduction in trabecular separation in proximal femurs at 10 mg/kg, po for 8 days by micro-CT analysis; assay type: functional, organism-based
HEK-293T = assay: Trans-suppression of NFkappaB (unknown origin) in HEK293T cells cotransfected with betagalactosidase at 10 uM incubated for 12 hrs followed by RANKL-stimulation by luciferase reporter gene assay; assay type: cell-based; conditions: Homo sapiens
BMDM [6] = assay: Anti-osteoporosis activity in ICR mouse bone marrow macrophages assessed as inhibition of RANKL-induced OSCAR mRNA expression at 10 uM after 12 to 48 hrs by RT-PCR analysis; assay type: functional
BMDM [7] = assay: Anti-osteoporosis activity in ICR mouse bone marrow macrophages assessed as inhibition of RANKL-induced OC-STAMP mRNA expression at 10 uM after 12 to 48 hrs by RT-PCR analysis; assay type: functional
BMDM [8] = assay: Anti-osteoporosis activity in ICR mouse bone marrow macrophages assessed as inhibition of RANKL-induced DC-STAMP mRNA expression at 10 uM after 12 to 48 hrs by RT-PCR analysis; assay type: functional
Osteoclast [9] = assay: Inhibition of bone-resorbing in ICR mouse osteoclasts assessed as reduction in resorption at 10 uM after 24 hrs by pit formation assay; assay type: functional, cell-based
Mus musculus [10] = assay: Anti-resorptive activity in ICR mouse model of LPS-Induced bone loss assessed as increase in bone volume per tissue volume in proximal femurs at 10 mg/kg, po for 8 days by micro-CT analysis; assay type: functional, organism-based
BMDM [11] = assay: Anti-osteoporosis activity in ICR mouse bone marrow macrophages assessed as inhibition of RANKL-induced beta3-integrin mRNA expression at 10 uM after 12 to 48 hrs by RT-PCR analysis; assay type: functional
BMDM [12] = assay: Cytotoxicity against ICR mouse bone marrow macrophages assessed as reduction in cell viability up to 10 uM after 3 days by XTT assay; assay type: cell-based; conditions: 72 h
BMDM [13] = assay: Anti-osteoporosis activity in ICR mouse bone marrow macrophages assessed as inhibition of RANKL-induced ATP6v0d2 mRNA expression at 10 uM after 12 to 48 hrs by RT-PCR analysis; assay type: functional
BMDM [14] = assay: Inhibition of RANKL-induced osteoclastogenesis in ICR mouse bone marrow harboring constitutively active AKT macrophages assessed as reduction in TRAP-positive multinucleated osteoclasts at 10 uM after 3 days by TRAP staining based assay; assay type: functional, cell-based
BMDM [15] = assay: Anti-osteoporosis activity in ICR mouse bone marrow macrophages assessed as inhibition of RANKL-induced c-Fos mRNA expression at 10 uM after 12 to 48 hrs by RT-PCR analysis; assay type: functional, cell-based
BMDM [16] = assay: Anti-osteoporosis activity in ICR mouse bone marrow macrophages assessed as inhibition of RANKL-induced MMP9 mRNA expression at 10 uM after 12 to 48 hrs by RT-PCR analysis; assay type: functional
BMDM [17] = assay: Inhibition of RANKL-induced osteoclastogenesis in ICR mouse bone marrow macrophages harboring constitutively active IKKbeta assessed as reduction in TRAP-positive multinucleated osteoclasts at 10 uM after 3 days by TRAP staining based assay; assay type: functional, cell-based
[18] = target: T1, 1-phosphatidylinositol 4,5-bisphosphate phosphodiesterase gamma-2 (Mus musculus) (UniProt Q8CIH5); assay: Inhibition of PLCgamma2 phosphorylation in RANKL-induced ICR mouse bone marrow macrophages at 10 uM preincubated for 1 hr followed by RANKL-stimulation and measured after 5 to 30 mins by Western blot analysis
T1 sequence (whole entry): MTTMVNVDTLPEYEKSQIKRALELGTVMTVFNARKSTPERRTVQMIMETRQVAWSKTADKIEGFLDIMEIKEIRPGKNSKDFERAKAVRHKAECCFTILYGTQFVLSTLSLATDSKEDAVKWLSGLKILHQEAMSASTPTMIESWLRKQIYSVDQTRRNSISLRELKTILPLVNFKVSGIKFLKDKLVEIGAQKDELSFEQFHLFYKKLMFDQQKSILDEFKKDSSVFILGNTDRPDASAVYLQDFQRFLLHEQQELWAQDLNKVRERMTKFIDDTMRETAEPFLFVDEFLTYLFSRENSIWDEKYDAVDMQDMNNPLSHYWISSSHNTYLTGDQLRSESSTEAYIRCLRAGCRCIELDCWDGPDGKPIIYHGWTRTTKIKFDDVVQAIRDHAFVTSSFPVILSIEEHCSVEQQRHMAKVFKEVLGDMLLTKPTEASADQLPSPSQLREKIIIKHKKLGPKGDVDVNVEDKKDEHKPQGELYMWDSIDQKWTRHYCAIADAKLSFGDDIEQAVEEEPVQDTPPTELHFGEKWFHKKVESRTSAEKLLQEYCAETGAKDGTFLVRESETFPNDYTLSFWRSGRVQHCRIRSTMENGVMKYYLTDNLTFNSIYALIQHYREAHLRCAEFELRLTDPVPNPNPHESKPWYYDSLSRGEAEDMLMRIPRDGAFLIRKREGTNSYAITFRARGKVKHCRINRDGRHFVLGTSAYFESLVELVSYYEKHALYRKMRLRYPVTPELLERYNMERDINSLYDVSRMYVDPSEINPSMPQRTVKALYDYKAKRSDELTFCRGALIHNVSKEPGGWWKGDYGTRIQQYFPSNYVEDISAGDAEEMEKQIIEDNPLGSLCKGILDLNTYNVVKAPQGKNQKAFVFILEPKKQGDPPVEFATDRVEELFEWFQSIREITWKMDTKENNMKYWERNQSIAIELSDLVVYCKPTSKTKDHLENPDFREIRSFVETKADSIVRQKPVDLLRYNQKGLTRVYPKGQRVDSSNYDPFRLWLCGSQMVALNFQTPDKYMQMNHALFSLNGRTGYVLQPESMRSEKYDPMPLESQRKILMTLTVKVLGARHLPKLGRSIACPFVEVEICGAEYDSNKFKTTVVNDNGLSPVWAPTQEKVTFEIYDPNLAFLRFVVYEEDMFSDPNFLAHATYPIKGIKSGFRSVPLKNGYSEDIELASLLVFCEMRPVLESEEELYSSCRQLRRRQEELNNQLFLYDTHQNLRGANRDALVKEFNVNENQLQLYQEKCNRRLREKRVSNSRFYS

Mus musculus [19] = assay: Anti-resorptive activity in ICR mouse model of LPS-Induced bone loss assessed as increase in trabecular bone in femurs at 10 mg/kg, po for 8 days by H and E staining based light microscopic analysis; assay type: functional, organism-based
[20] = target: RAC-alpha serine/threonine-protein kinase (Mus musculus) (UniProt P31750); assay: Inhibition of AKT phosphorylation in RANKL-induced ICR mouse bone marrow macrophages at 10 uM preincubated for 1 hr followed by RANKL-stimulation and measured after 5 to 30 mins by Western blot analysis
Mus musculus [21] = assay: Anti-resorptive activity in ICR mouse model of LPS-Induced bone loss assessed as reduction in bone loss in proximal femurs at 10 mg/kg, po for 8 days by micro-CT analysis; assay type: functional, organism-based
BMDM [22] = assay: Anti-osteoporosis activity in ICR mouse bone marrow macrophages assessed as inhibition of RANKL-induced NFATc1 mRNA expression at 10 uM after 12 to 48 hrs by RT-PCR analysis; assay type: functional, cell-based
BMDM [23] = assay: Anti-osteoporosis activity in ICR mouse bone marrow macrophages assessed as inhibition of RANKL-induced c-Fos protein expression at 10 uM after 12 to 48 hrs by Western blot analysis; assay type: functional, cell-based
Osteoclast [24] = assay: Inhibition of bone-resorbing in ICR mouse osteoclasts assessed as downregulation of Ctsk-mRNA expression at 10 uM after 12 to 48 hrs by RT-PCR analysis; assay type: functional, cell-based
BMDM [25] = assay: Anti-osteoporosis activity in ICR mouse bone marrow macrophages assessed as inhibition of RANKL-induced NFATc1 protein expression at 10 uM after 12 to 48 hrs by Western blot analysis; assay type: functional, cell-based
Mus musculus [26] = assay: Anti-resorptive activity in ICR mouse model of LPS-Induced bone loss assessed as increase in trabecular number in proximal femurs at 10 mg/kg, po for 8 days by micro-CT analysis; assay type: functional, organism-based
Mus musculus [27] = assay: Anti-resorptive activity in ICR mouse model of LPS-Induced bone loss assessed as inhibition of TRAP-positive multinucleated osteoclasts formation in femurs at 10 mg/kg, po for 8 days by TRAP staining based light microscopic analysis; assay type: functional, organism-based
[28] = target: I-kappa-B kinase (Mus musculus) (UniProt Q60680+O88351+O88522); assay: Inhibition of IKappaB phosphorylation in RANKL-induced ICR mouse bone marrow macrophages at 10 uM preincubated for 1 hr followed by RANKL-stimulation and measured after 5 to 30 mins by Western blot analysis; assay type: protein-complex assay
BMDM [29] = assay: Inhibition of RANKL-induced osteoclastogenesis in ICR mouse bone marrow macrophages assessed as reduction in TRAP-positive multinucleated osteoclasts after 4 days by TRAP staining based assay; assay type: functional, cell-based
[30] = target: T1, 1-phosphatidylinositol 4,5-bisphosphate phosphodiesterase gamma-2 (Mus musculus); assay: Inhibition of PLCgamma2 in ICR mouse bone marrow macrophages assessed as reduction in calcium influx at 10 uM after 3 days by Fluo-3/AM staining based confocal microscopic analysis

With NC1(c2ccc(-c3nc4ccn5c(=O)[nH]nc5c4cc3-c3ccccc3)cc2)CCC1 the inhibition (BMDM [1]) was “Active”, the inhibition (BMDM [2]) was “Active” and the inhibition (BMDM [3]) was “Active”. For the same molecule, the inhibition [4] was “Active”.

With C=C(C)[C@@H]1CC[C@]2(C(=O)O)CC[C@]3(C)[C@H](CC[C@@H]4[C@@]5(C)CC[C@H](O)C(C)(C)[C@@H]5CC[C@]43C)[C@@H]12 [BETULINIC ACID] the Activity (Mus musculus [5]) was “Active”, the Activity (HEK-293T) was “Active” and the “fold change (FC)” value (BMDM [6]) was 2 - 4. The “fold change (FC)” value (BMDM [7]) was 2 - 4, the “fold change (FC)” value (BMDM [8]) was 2 - 4 and the inhibition (Osteoclast [9]) was “Active”. For the same molecule, the Activity (Mus musculus [10]) was “Active”, the “fold change (FC)” value (BMDM [11]) was 2 - 4 and the Activity (BMDM [12]) was “Non-Toxic”. The “fold change (FC)” value (BMDM [13]) was 2 - 4, the inhibition (BMDM [14]) was “inactive” and the inhibition (BMDM [15]) was “Active”. The “fold change (FC)” value (BMDM [16]) was 2 - 4, the inhibition (BMDM [17]) was “Active” and the inhibition [18] was “Active”. For the same molecule, the Activity (Mus musculus [19]) was “Active”, the inhibition [20] was “Active” and the Activity (Mus musculus [21]) was “Active”. The inhibition (BMDM [22]) was “Active”, the inhibition (BMDM [23]) was “Active” and the inhibition (Osteoclast [24]) was “Active”. The inhibition (BMDM [25]) was “Active”, the Activity (Mus musculus [26]) was “Active” and the inhibition (Mus musculus [27]) was “Active”. For the same molecule, the inhibition [28] was “Active”, the inhibition (BMDM [29]) was “Dose-dependent effect” and the inhibition [30] was “Active”.
